Results on seven molecules are retold here after US20210369675A1, “ANTIMICROBIAL DRUG METHODS OF USE & THERAPEUTIC COMPOSITIONS” (priority 2017, published 2021).

Entries after “also recorded” stand apart in the source; their conditions may differ.

In series [1] the test system is Burkholderia pseudomallei. Format: cell-based.
For series [2] the following is noted: cited from earlier work; for elimination half-life (T1/2): after a single administration of rac-ornidazole in a formulation; for AUC0-∞: after a single administration.
The conditions of series [3]: current 300 mg capsule formulation, per product label; cited from earlier work.
The test system of series [4] is Burkholderia pseudomallei. Particulars: cited from earlier work.
For a further series, the system named is Brucella melitensis. Particulars: cited from earlier work.

On to `Cc1ncc([N+](=O)[O-])n1CC(O)CCl` (racemic) [(rac)-ornidazole, 1-chloro-3-(2-methyl-5-nitro-1H-imidazol-1-yl)propan-2-ol], for which, in series [1], the “inhibition of B. pseudomallei grown under anaerobic conditions” value was “inhibition; also recorded: effectively inhibited”.

In the case of `Cc1ncc([N+](=O)[O-])n1C[C@@H](O)CCl` [(R)-ornidazole], in series [2], the “elimination half-life (T1/2)” value is on record as “similar” and the “AUC0-∞” value is recorded as “similar”. As to `Cc1ncc([N+](=O)[O-])n1C[C@H](O)CCl` [(S)-ornidazole], in series [2], the “elimination half-life (T1/2)” value is listed as “similar” and the “AUC0-∞” value was “similar”.

In the case of `C[C@H](CCC(=O)O)[C@H]1CC[C@H]2[C@@H]3[C@@H](O)C[C@@H]4C[C@H](O)CC[C@]4(C)[C@H]3CC[C@]12C` [Ursodiol, ursodeoxycholic acid], in series [3], the “fraction of drug absorbed in the small intestines (small bowel)” value is reported as 90% and the “fraction of drug reaching the colon” value is “less than 10%”.

In the case of `CC(C)(O/N=C(\C(=O)N[C@@H]1C(=O)N2C(C(=O)[O-])=C(C[n+]3ccccc3)CS[C@H]12)c1csc(N)n1)C(=O)O` [ceftazidime], the “effectiveness of conventional antibiotics against B. pseudomallei” value (shortened to “effectiveness … against B. pseudomallei”) in series [4] is “not effective”. Besides, the “effectiveness of conventional antibiotics against B. melitensis” value (“effectiveness … against B. melitensis” for short) in the series on Brucella melitensis was “not effective”. As for `O=C(N[C@H](CO)[C@H](O)c1ccc([N+](=O)[O-])cc1)C(Cl)Cl` [chloramphenicol], in series [4], the “effectiveness … against B. pseudomallei” value was “not effective”. Besides, the “effectiveness … against B. melitensis” value in the series with Brucella melitensis is “not effective”. On to trimethoprim-sulfamethoxazole, for which, in series [4], the “effectiveness … against B. pseudomallei” value is listed as “not effective”. For the same molecule, in the series on Brucella melitensis, the “effectiveness … against B. melitensis” value was “not effective”.
